Consider 22 molecules from patent publication US10689354B2, “Aminoazole derivative” (Teijin Pharma Limited, priority 2015, dated 2020).

Molecules are shown by their SMILES.

In test [1] the target is T1, androgen receptor (AR-LBD) (Rattus norvegicus, UniProt P15207).
T1 construct: 5 μL of 2×AR-LBD/Fluoromone AL Red Complex contained in the kit; purchased Invitrogen
T1 sequence (P15207 651-882 limits assumed): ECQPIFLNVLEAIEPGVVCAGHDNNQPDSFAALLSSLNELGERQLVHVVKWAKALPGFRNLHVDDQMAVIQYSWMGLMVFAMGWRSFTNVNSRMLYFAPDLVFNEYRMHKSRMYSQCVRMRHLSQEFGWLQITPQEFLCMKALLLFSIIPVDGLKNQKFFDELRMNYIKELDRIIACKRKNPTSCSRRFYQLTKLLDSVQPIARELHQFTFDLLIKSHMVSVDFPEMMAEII
Put plainly: Evaluation of androgen receptor affinity (PolarScreen Androgen Receptor Competitor Assay Kit, Red; fluorescence polarization). Particulars: 22° C. for 5 hours, relative to binding rate of 1 μM DHT, read-out: AR affinity (pEC50) (converted). Put shortly: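 Compounds were mixed with AR-LBD/Fluoromone AL Red complex and incubated 5 h at 22° C before fluorescence polarization was read. Binding was expressed relative to 1 μM dihydrotestosterone, and pEC50 (concentration giving 50% of that binding) came from a 4-parameter fit.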

Test [2] has as its target T2, human androgen receptor (Homo sapiens, UniProt P10275).
T2 construct: expressed in transfected cells; host or cells: HEK293
T2 sequence (P10275 1-920): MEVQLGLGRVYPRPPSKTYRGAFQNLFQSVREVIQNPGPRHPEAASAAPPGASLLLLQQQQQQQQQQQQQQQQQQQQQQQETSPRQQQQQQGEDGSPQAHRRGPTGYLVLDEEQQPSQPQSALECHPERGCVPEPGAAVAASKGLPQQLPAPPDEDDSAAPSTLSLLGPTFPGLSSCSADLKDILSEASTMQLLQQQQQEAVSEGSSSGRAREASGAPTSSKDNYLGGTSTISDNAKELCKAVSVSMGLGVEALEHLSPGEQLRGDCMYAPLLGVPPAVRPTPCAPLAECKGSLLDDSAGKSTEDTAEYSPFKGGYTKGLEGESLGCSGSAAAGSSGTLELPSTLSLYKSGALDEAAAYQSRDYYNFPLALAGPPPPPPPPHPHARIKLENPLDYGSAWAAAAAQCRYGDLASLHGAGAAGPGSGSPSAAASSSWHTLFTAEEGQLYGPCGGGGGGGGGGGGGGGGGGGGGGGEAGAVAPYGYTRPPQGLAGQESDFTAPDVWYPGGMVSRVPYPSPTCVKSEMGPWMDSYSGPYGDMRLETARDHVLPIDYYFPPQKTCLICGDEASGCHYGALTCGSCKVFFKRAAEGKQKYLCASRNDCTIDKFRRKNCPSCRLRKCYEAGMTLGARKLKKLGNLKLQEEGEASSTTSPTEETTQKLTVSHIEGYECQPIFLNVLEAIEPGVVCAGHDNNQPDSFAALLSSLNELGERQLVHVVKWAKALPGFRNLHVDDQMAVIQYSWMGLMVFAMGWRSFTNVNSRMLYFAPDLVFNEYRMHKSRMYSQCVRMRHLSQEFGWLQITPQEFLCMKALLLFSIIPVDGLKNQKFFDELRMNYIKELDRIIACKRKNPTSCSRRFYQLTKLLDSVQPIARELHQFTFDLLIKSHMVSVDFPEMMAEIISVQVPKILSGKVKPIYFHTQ
Put plainly: Reporter assay of an androgen receptor responsive sequence (luciferase, transiently transfected HEK293 cells). Type of test: cell-based. Particulars: 24 hours incubation, relative to activity of 100 nM DHT, read-out: AR transcriptive activity (pEC50) (converted). The gist of the method:
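HEK293 cells transiently transfected for 3 h with ARE-firefly luciferase, full-length human AR and TK-Renilla plasmids, then exposed to compound for 24 h at 37 °C in 5% charcoal-treated FBS/DMEM. Dual-Glo luminescence read; pEC50 from 4-parameter fit relative to 100 nM DHT.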
In general terms: In a reporter assay the amount or activity of a reporter protein is the signal.

As for `Cc1sc(N(Cc2ccc3nsnc3c2)c2ccc(C#N)cc2)nc1C(=O)NS(C)(=O)=O` [Compound 114, 2-[N-(2,1,3-benzothiadiazole-5-ylmethyl)-4-cyano-anilino]-5-methyl-N-methylsulfonyl-thiazole-4-carboxamide], the EC50 was 126 nM in test [1] and 158 nM in test [2].

With `Cc1cc(CN(CCc2ccc(OC(F)(F)F)cc2)c2nc(C(=O)NS(C)(=O)=O)c(C)s2)no1` [Compound 509, 5-methyl-2-[(5-methylisoxazol-3-yl)methyl-[2-[4-(trifluoromethoxy)phenyl]ethyl]amino]-N-methylsulfonyl-thiazole-4-carboxamide], the results for the EC50 in test [1] and in test [2] were 200 nM and greater than 10000 nM, respectively.

Consider `Cc1sc(N(Cc2cccc(OCC(C)C)c2)c2ccc(C#N)cc2)nc1C(=O)NS(C)(=O)=O` [Compound 586, 2-[4-cyano-N-[(3-isobutoxyphenyl)methyl]anilino]-5-methyl-N-methylsulfonyl-thiazole-4-carboxamide], for which the EC50 in test [1] was 79.4 nM; in test [2] it was 7940 nM.

Consider `CS(=O)(=O)NC(=O)c1nc(N(Cc2ccc(F)cc2)c2ccc(C(F)(F)F)nc2)sc1Br` [Example 282, 5-bromo-2-[(4-fluorophenyl)methyl-[6-(trifluoromethyl)-3-pyridyl]amino]-N-methylsulfonyl-thiazole-4-carboxamide], for which the EC50 is 39.8 nM in test [1] and 316 nM in test [2].

For the molecule `Cc1sc(N(CC2Cc3ccccc3C2)c2ccc(C#N)cc2)nc1C(=O)NS(C)(=O)=O` [Compound 454, 2-[4-cyano-N-(indan-2-ylmethyl)anilino]-5-methyl-N-methylsulfonyl-thiazole-4-carboxamide], the EC50 in test [1] was 50.1 nM; in test [2], 251 nM.

For `CS(=O)(=O)NC(=O)c1nc(N(Cc2cccc(Cl)c2)c2ccc(C#N)cc2)sc1Br` [Example 247, 5-bromo-2-[N-[(3-chlorophenyl)methyl]-4-cyano-anilino]-N-methylsulfonyl-thiazole-4-carboxamide], the EC50 in test [1] and in test [2] was 31.6 nM each time.

For the molecule `Cc1sc(N(CCn2cc(Cl)cn2)Cc2ccccc2)nc1C(=O)NS(C)(=O)=O` [Compound 709, 2-[benzyl-[2-(4-chloropyrazol-1-yl)ethyl]amino]-5-methyl-N-methylsulfonyl-thiazole-4-carboxamide], the values for the EC50 in test [1] and in test [2] were 200 nM and 631 nM, respectively.

For the molecule `Cc1sc(N(CCC2CCCCO2)c2ccc(C#N)cc2)nc1C(=O)NS(C)(=O)=O` (centres unmarked) [Compound 443, 2-[4-cyano-N-(2-tetrahydropyran-2-ylethyl)anilino]-5-methyl-N-methylsulfonyl-thiazole-4-carboxamide], the EC50 in test [1] is 200 nM; in test [2] it was 501 nM.

Consider `Cc1sc(N(CCc2cccc(F)c2)c2ccc(C#N)cc2)nc1C(=O)NS(C)(=O)=O` [Compound 83, 2-[4-cyano-N-[2-(3-fluorophenyl)ethyl]anilino]-5-methyl-N-methylsulfonyl-thiazole-4-carboxamide], for which the EC50 in test [1] is 126 nM; in test [2] it was 2510 nM.

With `Cc1sc(N(CCC2CCCCC2)Cc2ccc(Cl)cc2)nc1C(=O)NS(=O)(=O)Cc1cccnc1` [Compound 325, 2-[(4-chlorophenyl)methyl-(2-cyclohexylethyl)amino]-5-methyl-N-(3-pyridylmethylsulfonyl)thiazole-4-carboxamide], the EC50 in test [1] was 31.6 nM; in test [2] it was 398 nM.

`Cc1sc(N(CCc2ccc(C#N)cc2)Cc2ccccc2)nc1C(=O)NS(C)(=O)=O` [Example 301, 2-[benzyl-[2-(4-cyanophenyl)ethyl]amino]-5-methyl-N-methylsulfonyl-thiazole-4-carboxamide]: the EC50 in test [1] was 50.1 nM; in test [2] it was 158 nM.

For the molecule `COc1ccc(CN(c2ccc(C#N)cc2)c2nc(C(=O)NS(C)(=O)=O)c(C)s2)nc1` [Compound 515, 2-[4-cyano-N-[(5-methoxy-2-pyridyl)methyl]anilino]-5-methyl-N-methylsulfonyl-thiazole-4-carboxamide], the EC50 was 794 nM in test [1] and 501 nM in test [2].

With `CCS(=O)(=O)NC(=O)c1nc(N(CCc2ccc(C#N)cc2)CC2CCCCC2)sc1C` [Compound 717, 2-[2-(4-cyanophenyl)ethyl-(cyclohexylmethyl)amino]-N-ethylsulfonyl-5-methyl-thiazole-4-carboxamide], the EC50 in test [1] is 1000 nM; in test [2], greater than 10000 nM.

In the case of `COc1cccc(CN(c2ccc(C#N)cc2)c2nc(C(=O)NS(C)(=O)=O)c(Br)s2)c1` [Example 265, 5-bromo-2-[4-cyano-N-[(3-methoxyphenyl)methyl]anilino]-N-methylsulfonyl-thiazole-4-carboxamide], the EC50 was 50.1 nM in test [1] and 158 nM in test [2].

On to `Cc1sc(N(Cc2ccc(-c3ccccc3F)cn2)c2ccc(C#N)cc2)nc1C(=O)NS(C)(=O)=O` [Compound 594, 2-[4-cyano-N-[[5-(2-fluorophenyl)-2-pyridyl]methyl]anilino]-5-methyl-N-methylsulfonyl-thiazole-4-carboxamide], for which the EC50 in test [1] is 79.4 nM; in test [2], 1580 nM.

Take `Cc1sc(N(CCc2ccsc2)c2ccc(C#N)cc2)nc1C(=O)NS(C)(=O)=O` [Compound 132, 2-[4-cyano-N-[2-(3-thienyl)ethyl]anilino]-5-methyl-N-methylsulfonyl-thiazole-4-carboxamide]: the EC50 was 316 nM in test [1] and 1580 nM in test [2].

As for `COCCCS(=O)(=O)NC(=O)c1nc(N(CCc2ccc(OC(F)(F)F)cc2)Cc2nc(C3CC3)no2)oc1C` [Compound 563, 2-[(3-cyclopropyl-1,2,4-oxadiazol-5-yl)methyl-[2-[4-(trifluoromethoxy)phenyl]ethyl]amino]-N-(3-methoxypropylsulfonyl)-5-methyl-oxazole-4-carboxamide], the values for the EC50 in test [1] and in test [2] were 79.4 nM and 1580 nM, respectively.

Turning to `COc1ccc(CN(c2ccc(C#N)cc2)c2nc(C(=O)NS(C)(=O)=O)c(C)s2)c(F)c1F` [Compound 112, 2-[4-cyano-N-[(2,3-difluoro-4-methoxy-phenyl)methyl]anilino]-5-methyl-N-methylsulfonyl-thiazole-4-carboxamide], the EC50 in test [1] is 31.6 nM; in test [2], 79.4 nM.

As for `Cc1sc(N(CCC2CCCC2O)c2ccc(C#N)cc2)nc1C(=O)NS(C)(=O)=O` (centres unmarked) [Compound 406, 2-[4-cyano-N-[2-(2-hydroxycyclopentyl)ethyl]anilino]-5-methyl-N-methylsulfonyl-thiazole-4-carboxamide], the EC50 in test [1] is 794 nM; in test [2], 2510 nM.

Regarding `Cc1sc(N(Cc2ccc(OC(F)(F)F)c(F)c2)c2ccc(C#N)cc2)nc1C(=O)NS(C)(=O)=O` [Compound 420, 2-[4-cyano-N-[[3-fluoro-4-(trifluoromethoxy)phenyl]methyl]anilino]-5-methyl-N-methylsulfonyl-thiazole-4-carboxamide], the EC50 in test [1] was 20 nM; in test [2] it was 158 nM.

Take `Cc1sc(N(CCc2cccc(C(F)(F)F)c2)Cc2ccccc2)nc1C(=O)NS(C)(=O)=O` [Compound 330, 2-[benzyl-[2-[3-(trifluoromethyl)phenyl]ethyl]amino]-5-methyl-N-methylsulfonyl-thiazole-4-carboxamide]: the EC50 in test [1] was 251 nM; in test [2], greater than 10000 nM.

Turning to `Cc1sc(N(Cc2cccc(Oc3ccccc3)c2)c2ccc(C#N)cc2)nc1C(=O)NS(C)(=O)=O` [Compound 82, 2-[4-cyano-N-[(3-phenoxyphenyl)methyl]anilino]-5-methyl-N-methylsulfonyl-thiazole-4-carboxamide], the EC50 in test [1] was 79.4 nM; in test [2] it was greater than 10000 nM.
